Literature values in patent US20240156825A1, “USE OF SELECTIVE VEGFR2 AND FGFR1 INHIBITORS” (Fountain Therapeutics Inc., priority 2022, published 2024).
Read-outs that look alike come from different tables or passages of the source.

Experiments:
any gene target = settings: next lowest IC50 value to any gene target, read-out: Min IC50_μM, cited from earlier work
VEGFR2 = VEGFR2 (Homo sapiens, UniProt P35968); settings: reported IC50 to VEGFR2, read-out: VEGFR2 IC50_μM, cited from earlier work
[1] = Table 3, selective inhibitors of VEGFR2

VEGFR2, sequence (P35968 20-1356, species assumed): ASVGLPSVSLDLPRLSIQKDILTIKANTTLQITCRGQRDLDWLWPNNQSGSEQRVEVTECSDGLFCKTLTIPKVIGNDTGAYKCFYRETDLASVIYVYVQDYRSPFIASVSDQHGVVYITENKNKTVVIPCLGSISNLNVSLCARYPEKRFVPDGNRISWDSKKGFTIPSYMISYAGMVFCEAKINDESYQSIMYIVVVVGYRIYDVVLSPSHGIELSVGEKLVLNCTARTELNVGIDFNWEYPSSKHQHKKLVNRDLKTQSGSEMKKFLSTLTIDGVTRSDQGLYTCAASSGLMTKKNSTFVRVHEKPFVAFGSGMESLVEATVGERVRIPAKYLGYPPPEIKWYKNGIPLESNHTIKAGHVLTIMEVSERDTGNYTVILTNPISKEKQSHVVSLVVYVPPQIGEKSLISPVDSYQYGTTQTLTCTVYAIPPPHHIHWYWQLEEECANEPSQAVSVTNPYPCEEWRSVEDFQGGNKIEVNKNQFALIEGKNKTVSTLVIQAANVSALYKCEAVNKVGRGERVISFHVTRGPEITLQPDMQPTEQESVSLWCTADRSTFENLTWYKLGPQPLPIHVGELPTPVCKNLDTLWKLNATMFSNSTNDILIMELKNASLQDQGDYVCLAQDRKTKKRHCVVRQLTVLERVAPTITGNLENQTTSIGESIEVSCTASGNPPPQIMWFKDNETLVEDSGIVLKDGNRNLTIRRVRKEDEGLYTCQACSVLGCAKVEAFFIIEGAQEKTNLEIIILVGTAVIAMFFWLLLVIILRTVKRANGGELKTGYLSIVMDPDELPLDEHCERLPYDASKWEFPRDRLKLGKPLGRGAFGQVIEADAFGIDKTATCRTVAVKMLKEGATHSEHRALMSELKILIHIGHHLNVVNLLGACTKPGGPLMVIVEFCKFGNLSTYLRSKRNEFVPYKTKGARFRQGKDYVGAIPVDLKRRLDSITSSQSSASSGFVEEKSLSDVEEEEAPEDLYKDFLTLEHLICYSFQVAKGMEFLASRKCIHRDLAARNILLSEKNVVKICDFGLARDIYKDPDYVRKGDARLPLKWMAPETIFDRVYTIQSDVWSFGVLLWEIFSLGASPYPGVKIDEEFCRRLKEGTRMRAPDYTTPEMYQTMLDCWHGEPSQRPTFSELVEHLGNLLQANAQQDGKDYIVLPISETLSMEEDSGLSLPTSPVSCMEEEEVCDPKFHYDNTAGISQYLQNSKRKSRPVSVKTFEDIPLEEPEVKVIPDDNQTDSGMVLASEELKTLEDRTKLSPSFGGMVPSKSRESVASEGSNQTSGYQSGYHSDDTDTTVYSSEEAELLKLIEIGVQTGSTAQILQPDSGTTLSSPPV

SMILES | IC50 (any gene target) | IC50 (VEGFR2) | IC50 (any gene target; Table 3) | IC50 (VEGFR2; [1])
COc1cc2c(Nc3ccc(F)c(Cl)c3F)ncnc2cc1OCC1CN(C)C(C)(C)CO1 (stereo not drawn) [compound 57802650] | 50 nM | 50 nM |  | 
COc1cc2c(Nc3ccc(Cl)c(Cl)c3F)ncnc2cc1OCC1CN(C)C(C)(C)CO1 (stereo not drawn) [compound 57802653] | 50 nM | 50 nM |  | 
COc1cc2c(Nc3ccc(Cl)c(Cl)c3)ncnc2cc1OCC1CN(S(=O)(=O)CCCCl)CCO1 (stereo not drawn) [compound 57802656] | 50 nM | 50 nM |  | 
COc1cc2c(Nc3ccc(Cl)c(Cl)c3)ncnc2cc1OCC1CN(C)C(C)(C)CO1 (stereo not drawn) [compound 57802660] | 50 nM | 50 nM |  | 
COc1cc2c(Nc3ccc(Br)c(Cl)c3Cl)ncnc2cc1OCC1CN(C)CCO1 (stereo not drawn) [compound 57802669] | 50 nM | 50 nM |  | 
CCCN1CCCOC(COc2cc3ncnc(Nc4ccc(Cl)c(Cl)c4)c3cc2OC)C1 (stereo not drawn) [compound 57802675] | 50 nM | 50 nM |  | 
COc1cc2c(Nc3ccc(Cl)c(Cl)c3)ncnc2cc1OC[C@@H]1CN2CCC[C@H]2CO1 [compound 57802678] | 50 nM | 50 nM |  | 
COc1cc2c(Nc3ccc(Cl)c(Cl)c3)ncnc2cc1OCc1nc(N2CCNCC2)no1 [compound 57802679] | 50 nM | 50 nM |  | 
COc1cc2c(Nc3ccc(F)c(Cl)c3F)ncnc2cc1OCC1CN(C)CCO1 (stereo not drawn) [compound 57802680] | 50 nM | 50 nM |  | 
COc1cc2c(Nc3ccc(Cl)c(Cl)c3)ncnc2cc1OCC1CN(C(=O)c2cccnc2Cl)CCO1 (stereo not drawn) [compound 57802694] | 50 nM | 50 nM |  | 
CCOc1cc2c(Nc3ccc(Cl)c(Cl)c3)ncnc2cc1OCC1CN(C)CCO1 (stereo not drawn) [compound 57802695] | 50 nM | 50 nM |  | 
COc1cc2c(Nc3ccc(Cl)c(Cl)c3)ncnc2cc1OCC1CN2CSC[C@H]2CO1 (stereo partly drawn) [compound 57802698] | 50 nM | 50 nM |  | 
CCOc1cc2c(Nc3ccc(Cl)c(Cl)c3)ncnc2cc1OCC1CNCCO1 (stereo not drawn) [compound 57802713] | 50 nM | 50 nM |  | 
COc1cc2c(Nc3ccc(Br)c(Cl)c3F)ncnc2cc1OC[C@@H]1CN(C)CC(=O)N1C [compound 57802721] | 50 nM | 50 nM |  | 
COc1cc2c(Nc3ccc(Br)c(Cl)c3Cl)ncnc2cc1OC[C@@H]1CN2CCC[C@H]2CO1 [compound 57802722] | 50 nM | 50 nM |  | 
COc1cc2c(Nc3ccc(Cl)c(Cl)c3)ncnc2cc1OCC1CN(C(C)=O)CCCO1 (stereo not drawn) [compound 57802725] | 50 nM | 50 nM |  | 
COc1cc2c(Nc3ccc(Cl)c(Cl)c3)ncnc2cc1OCCC1CN(C)CC(C)(C)O1 (stereo not drawn) [compound 57802732] | 50 nM | 50 nM |  | 
COc1cc2c(Nc3ccc(Cl)c(Cl)c3)ncnc2cc1OCC1CN(C(=NC#N)N2CCCCC2)CCO1 (stereo not drawn) [compound 57802736] | 50 nM | 50 nM |  | 
CCN1CCOC(COc2cc3ncnc(Nc4ccc(Cl)c(Cl)c4)c3cc2OC)C1 (stereo not drawn) [compound 57802737] | 50 nM | 50 nM |  | 
COc1cc2c(Nc3ccc(Br)c(Cl)c3F)ncnc2cc1OCC1CN(C)C(C)(C)CO1 (stereo not drawn) [compound 57802747] | 50 nM | 50 nM |  | 

SMILES | IC50 (any gene target) | IC50 (VEGFR2) | IC50 (any gene target; Table 3) | IC50 (VEGFR2; [1])
COc1cc2c(Nc3ccc(Cl)c(Cl)c3)ncnc2cc1OCCN1C(=O)c2ccccc2C1=O [compound 57802754] | 50 nM | 50 nM |  | 
COc1cc2c(Nc3ccc(Br)c(Cl)c3)ncnc2cc1OCC1CN(C)CCO1 (stereo not drawn) [compound 57802766] | 50 nM | 50 nM |  | 
COc1cc2c(Nc3cc(Cl)c(Br)cc3F)ncnc2cc1OCC1CN(C)C(C)(C)CO1 (stereo not drawn) [compound 57802776] | 50 nM | 50 nM |  | 
COc1cc2c(Nc3ccc(C)c(Cl)c3Cl)ncnc2cc1OCC1CN(C)CCO1 (stereo not drawn) [compound 57802779] | 50 nM | 50 nM |  | 
COc1cc2c(Nc3ccc(Br)c(Cl)c3)ncnc2cc1OC1CCN(C)C1 (stereo not drawn) [compound 57802786] | 50 nM | 50 nM |  | 
COc1cc2c(Nc3ccc(Cl)c(Cl)c3F)ncnc2cc1OC[C@@H]1CN2CCC[C@H]2CO1 [compound 57802793] |  |  | 50 nM | 50 nM
CC(C)Oc1cc2c(Nc3ccc(Cl)c(Cl)c3)ncnc2cc1OCC1CN(C)CCO1 (stereo not drawn) [compound 57802797] | 50 nM | 50 nM |  | 
COc1cc2c(Nc3ccc(Cl)c(Cl)c3)ncnc2cc1OC[C@@H]1O[C@@H](OC)[C@@H](O)[C@H](O)[C@H]1O [compound 57802800] | 50 nM | 50 nM |  | 
COc1cc2c(Nc3ccc(Cl)c(Cl)c3Cl)ncnc2cc1OCC1CN(C)CCO1 (stereo not drawn) [compound 57802801] | 50 nM | 50 nM |  | 
COc1cc2c(Nc3ccc(Br)c(Cl)c3F)ncnc2cc1OC[C@@H]1CN2CCC[C@H]2C(=O)N1 [compound 57802807] | 50 nM | 50 nM |  | 
CCS(=O)(=O)N1CCOC(COc2cc3ncnc(Nc4ccc(Cl)c(Cl)c4)c3cc2OC)C1 (stereo not drawn) [compound 57802817] |  |  | 50 nM | 50 nM
COc1cc2c(Nc3ccc(Cl)c(Cl)c3)ncnc2cc1OCC1CN(C)C(C)(C)C(=O)O1 (stereo not drawn) [compound 57802818] |  |  | 50 nM | 50 nM
CCCCN1CCOC(COc2cc3ncnc(Nc4ccc(Cl)c(Cl)c4)c3cc2OC)C1 (stereo not drawn) [compound 57802833] |  |  | 50 nM | 50 nM
COc1cc2c(Nc3ccc(Br)c(C)c3)ncnc2cc1OCC1CN(C)CCO1 (stereo not drawn) [compound 57802842] |  |  | 50 nM | 50 nM
COc1cc2c(Nc3cc(F)c(Br)c(F)c3)ncnc2cc1OCC1CN(C)CCO1 (stereo not drawn) [compound 57802849] |  |  | 50 nM | 50 nM
COc1cc2c(Nc3cc(Cl)c(Cl)cc3F)ncnc2cc1OCC1CN(C)C(C)(C)CO1 (stereo not drawn) [compound 57802853] |  |  | 50 nM | 50 nM
COc1cc2c(Nc3ccc(Cl)c(Cl)c3)ncnc2cc1OCc1csc(C2CCN(C)CC2)n1 [compound 57802861] |  |  | 50 nM | 50 nM
COc1cc2c(Nc3ccc(Cl)c(Cl)c3)ncnc2cc1OCc1csc(C2CCCCN2)n1 (stereo not drawn) [compound 57802866] |  |  | 50 nM | 50 nM
COc1cc2c(Nc3ccc(Br)c(Cl)c3C)ncnc2cc1OCC1CN(C)CCO1 (stereo not drawn) [compound 57802867] |  |  | 50 nM | 50 nM
COc1cc2c(Nc3ccc(Cl)c(Cl)c3)ncnc2cc1OCC1CN(C(=O)C2CCCC2)CCO1 (stereo not drawn) [compound 57802868] |  |  | 50 nM | 50 nM

SMILES | IC50 (any gene target) | IC50 (VEGFR2) | IC50 (any gene target; Table 3) | IC50 (VEGFR2; [1])
COc1cc2c(Nc3ccc(Cl)c(Cl)c3)ncnc2cc1OCC1CN(C(=O)c2c(C)noc2C)CCO1 (stereo not drawn) [compound 57802871] |  |  | 50 nM | 50 nM
COc1cc2c(Nc3ccc(Cl)c(Cl)c3)ncnc2cc1OCC1CN(C(N)=NC#N)CCO1 (stereo not drawn) [compound 57802878] |  |  | 50 nM | 50 nM
COc1cc2c(Nc3ccc(Cl)c(Cl)c3)ncnc2cc1OC[C@H]1CN2CCC[C@@H]2CO1 [compound 57802880] |  |  | 50 nM | 50 nM
COc1cc2c(Nc3ccc(Cl)c(Cl)c3)ncnc2cc1OCCC1CN(C)C(C)(C)CO1 (stereo not drawn) [compound 57802889] |  |  | 50 nM | 50 nM
COc1cc2c(Nc3ccc(Br)c(Cl)c3F)ncnc2cc1OC[C@@H]1CN(C)CC(=O)N1 [compound 57802892] |  |  | 50 nM | 50 nM
COc1cc2c(Nc3ccc(Cl)c(Cl)c3)ncnc2cc1OCC1CN(S(C)(=O)=O)CCO1 (stereo not drawn) [compound 57802901] |  |  | 50 nM | 50 nM
COc1cc2c(Nc3ccc(Cl)c(Cl)c3)ncnc2cc1OCC1CN(C(=NC#N)N2CCCC2)CCO1 (stereo not drawn) [compound 57802904] |  |  | 50 nM | 50 nM
COc1cc2c(Nc3ccc(Br)c(Cl)c3F)ncnc2cc1OC[C@@H]1CN2CCC[C@H]2CO1 [compound 57802905] |  |  | 50 nM | 50 nM
CCC(=O)N1CCOC(COc2cc3ncnc(Nc4ccc(Cl)c(Cl)c4)c3cc2OC)C1 (stereo not drawn) [compound 57802906] |  |  | 50 nM | 50 nM
COc1cc2c(Nc3ccc(Cl)c(Cl)c3)ncnc2cc1OCc1csc(N2CCN(C)CC2)n1 [compound 57802910] |  |  | 50 nM | 50 nM
COc1cc2c(Nc3cc(F)c(Br)cc3F)ncnc2cc1OCC1CN(C)CCO1 (stereo not drawn) [compound 57802916] |  |  | 50 nM | 50 nM
CCN1CCCCC1c1nc(COc2cc3ncnc(Nc4ccc(Cl)c(Cl)c4)c3cc2OC)no1 (stereo not drawn) [compound 57802919] |  |  | 50 nM | 50 nM
CCN1CCCC(c2nc(COc3cc4ncnc(Nc5ccc(Cl)c(Cl)c5)c4cc3OC)no2)C1 (stereo not drawn) [compound 58013772] |  |  | 50 nM | 50 nM
COc1cc2c(Nc3ccc(Br)c(Cl)c3)ncnc2cc1O[C@@H]1CCOC1 [compound 58013780] |  |  | 50 nM | 50 nM
CCN1CCC(c2nc(COc3cc4ncnc(Nc5ccc(Cl)c(Cl)c5)c4cc3OC)no2)CC1 [compound 58013796] |  |  | 50 nM | 50 nM
COc1cc2c(Nc3ccc(Cl)c(Cl)c3)ncnc2cc1OCC1CN2CCOCC2CO1 (stereo not drawn) [compound 58013804] |  |  | 50 nM | 50 nM
COc1cc2c(Nc3ccc(F)c(Cl)c3F)ncnc2cc1OC[C@@H]1CN2CCC[C@H]2CO1 [compound 58013819] |  |  | 50 nM | 50 nM
C[C@@H](Nc1ncnc2[nH]c(-c3ccc(CNCc4ccc(C(=O)NO)cc4)cc3)cc12)c1ccccc1 [compound 59756709] |  |  | 100 nM | 100 nM
COc1cc2c(Nc3cc(Cl)c(Cl)cc3F)ncnc2cc1OC[C@@H]1CN2CCOC[C@H]2CO1 [compound 66838463] |  |  | 50 nM | 50 nM
COc1cc2c(Nc3cc(Cl)c(Br)cc3F)ncnc2cc1OC[C@@H]1CN2CCOC[C@H]2CO1 [compound 66838467] |  |  | 50 nM | 50 nM
